Where a name gives a salt, the structure may show the parent alone. Read-outs that look alike come from different tables or passages of the source.

Consider 17 compounds from US8871753B2, “Macrocyclic compounds and their use as kinase inhibitors” (Incyte Corporation, priority 2008, dated 2014).

Common to all, as to assay type: biochemical
One experiment addresses TYK2 (Homo sapiens, UniProt P29597). Description: TYK2 kinase inhibition (Table A1).
For experiment [1], the target named is T1, human JAK3 (a.a. 781-1124) (Homo sapiens, UniProt P52333).
T1 construct: JAK3 (a.a. 781-1124); His tag (N); made in house; host or cells: insect cells (baculovirus)
T1 sequence (P52333 781-1124): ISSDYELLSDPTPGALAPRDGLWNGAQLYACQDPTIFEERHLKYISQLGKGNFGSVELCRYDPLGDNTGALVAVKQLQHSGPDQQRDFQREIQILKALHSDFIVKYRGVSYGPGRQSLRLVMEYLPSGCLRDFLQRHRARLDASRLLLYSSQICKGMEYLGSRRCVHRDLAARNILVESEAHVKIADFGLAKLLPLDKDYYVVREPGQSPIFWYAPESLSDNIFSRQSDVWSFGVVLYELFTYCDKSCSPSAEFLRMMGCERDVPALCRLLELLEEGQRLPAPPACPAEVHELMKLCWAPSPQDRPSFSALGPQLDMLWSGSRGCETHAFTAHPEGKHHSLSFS
Put plainly: In vitro JAK kinase assay (HTRF, phosphorylation of a biotinylated peptide), JAK3. The method in brief:
(§1)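 Kinase activity was measured as phosphorylation of a biotinylated peptide, with ATP at 90 μM for JAK1, 30 μM for JAK2 and 3 μM for JAK3. Reactions ran 1 hr at room temperature, were stopped with EDTA plus SA-APC and Eu-Py20, and were read by HTRF after 40 minutes of antibody binding.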
(In general: TR-FRET usually uses a lanthanide donor and a delayed reading to cut background.)

Experiment [2] addresses T2, human JAK1 (a.a. 837-1142) (Homo sapiens, UniProt P23458).
T2 construct: human JAK1 (a.a. 837-1142); His tag (N); made in house; host or cells: insect cells (baculovirus)
Put plainly: In vitro JAK kinase assay (HTRF, phosphorylation of a biotinylated peptide), JAK1. Particulars: read-out: JAK1 IC50. An outline of the steps: as §1

The target in experiment [3] is T3, human JAK2 (a.a. 828-1132) (Homo sapiens, UniProt O60674).
T3 construct: JAK2 (a.a. 828-1132); His tag (N); made in house; host or cells: insect cells (baculovirus)
T3 sequence (O60674 828-1132): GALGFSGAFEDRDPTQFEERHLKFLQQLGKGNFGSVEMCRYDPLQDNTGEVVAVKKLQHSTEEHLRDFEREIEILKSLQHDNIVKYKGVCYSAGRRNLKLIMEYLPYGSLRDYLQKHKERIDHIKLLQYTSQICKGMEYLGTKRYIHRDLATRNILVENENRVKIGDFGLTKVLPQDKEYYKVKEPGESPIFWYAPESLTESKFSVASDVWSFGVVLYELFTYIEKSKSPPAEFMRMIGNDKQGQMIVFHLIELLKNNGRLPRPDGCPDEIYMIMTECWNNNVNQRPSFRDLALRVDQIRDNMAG
Description: In vitro JAK kinase assay (HTRF, phosphorylation of a biotinylated peptide), JAK2. The method in brief:
as §1

T2 sequence (P23458 849-1154): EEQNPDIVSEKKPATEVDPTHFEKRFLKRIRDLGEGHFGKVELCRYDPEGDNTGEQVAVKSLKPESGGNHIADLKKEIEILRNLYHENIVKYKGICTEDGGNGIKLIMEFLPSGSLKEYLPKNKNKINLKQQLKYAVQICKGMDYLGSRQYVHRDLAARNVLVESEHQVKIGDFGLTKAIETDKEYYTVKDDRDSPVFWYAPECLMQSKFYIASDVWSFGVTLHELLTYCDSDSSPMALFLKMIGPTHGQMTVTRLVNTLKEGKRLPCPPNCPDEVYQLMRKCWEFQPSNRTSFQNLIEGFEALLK
Sequence of TYK2 (P29597 whole entry): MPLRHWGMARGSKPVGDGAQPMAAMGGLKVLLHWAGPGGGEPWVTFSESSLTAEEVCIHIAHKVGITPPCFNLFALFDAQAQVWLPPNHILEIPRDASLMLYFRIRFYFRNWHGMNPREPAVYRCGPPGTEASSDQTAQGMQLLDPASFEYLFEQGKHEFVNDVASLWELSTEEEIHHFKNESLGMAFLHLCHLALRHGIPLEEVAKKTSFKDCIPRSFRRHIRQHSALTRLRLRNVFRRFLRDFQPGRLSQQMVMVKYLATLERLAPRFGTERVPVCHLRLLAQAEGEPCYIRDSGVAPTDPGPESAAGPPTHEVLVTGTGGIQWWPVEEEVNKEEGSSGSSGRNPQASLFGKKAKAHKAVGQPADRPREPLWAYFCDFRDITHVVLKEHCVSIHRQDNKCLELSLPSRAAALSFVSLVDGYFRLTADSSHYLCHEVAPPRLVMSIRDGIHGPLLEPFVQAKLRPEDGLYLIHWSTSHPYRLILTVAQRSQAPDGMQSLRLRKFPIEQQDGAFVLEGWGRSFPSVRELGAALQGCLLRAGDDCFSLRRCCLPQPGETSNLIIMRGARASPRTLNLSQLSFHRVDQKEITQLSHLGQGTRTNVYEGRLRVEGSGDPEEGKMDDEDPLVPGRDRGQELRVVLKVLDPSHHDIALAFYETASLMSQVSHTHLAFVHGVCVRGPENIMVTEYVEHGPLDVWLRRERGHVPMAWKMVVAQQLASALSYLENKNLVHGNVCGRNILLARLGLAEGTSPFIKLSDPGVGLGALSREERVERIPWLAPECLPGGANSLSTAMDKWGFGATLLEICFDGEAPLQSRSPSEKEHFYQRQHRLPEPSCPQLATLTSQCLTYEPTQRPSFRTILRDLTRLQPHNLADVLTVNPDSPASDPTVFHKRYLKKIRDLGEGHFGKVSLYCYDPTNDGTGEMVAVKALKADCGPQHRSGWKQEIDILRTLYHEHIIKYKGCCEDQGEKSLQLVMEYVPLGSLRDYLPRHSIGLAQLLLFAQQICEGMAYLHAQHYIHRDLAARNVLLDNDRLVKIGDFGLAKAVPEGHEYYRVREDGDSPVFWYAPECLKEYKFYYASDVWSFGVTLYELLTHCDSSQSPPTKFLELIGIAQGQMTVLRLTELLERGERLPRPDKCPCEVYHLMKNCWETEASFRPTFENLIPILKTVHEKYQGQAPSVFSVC

The term IC50 denotes the concentration at which inhibition is half-maximal. Regarding `O=C(c1ccncc1)N1CCC(CCOc2ccc3cc2CCc2cncc(c2)Nc2ncc(Cl)c(n2)N3)CC1` [Example D181, 6-Chloro-12-[2-(1-isonicotinoylpiperidin-4-yl)ethoxy]-2,4,8,18,22-pentaazatetracyclo[14.3.1.1(3,7).1(9,13)]docosa-1(20),3(22),4,6,9(21),10,12,16,18-nonaene tris(trifluoroacetate)], the IC50 was over 400 nM against TYK2 (Table D1), over 400 nM in experiment [1] (Table D1), 115 nM in experiment [2] (Table D1) and 313 nM in experiment [3] (Table D1).
Regarding `N#Cc1ccccc1S(=O)(=O)N1CCC(CCOc2ccc3cc2CCc2cncc(c2)Nc2ncc(Cl)c(n2)N3)CC1` [Example D163, 2-{[4-(2-{[6-Chloro-2,4,8,18,22-pentaazatetracyclo[14.3.1.1(3,7).1(9,13)]docosa-1(20),3(22),4,6,9(21),10,12,16,18-nonaen-12-yl]oxy}ethyl)piperidin-1-yl]sulfonyl}benzonitrilebis(trifluoroacetate)], the 50% inhibitory concentration (IC50) against TYK2 (Table D1) is over 400 nM; in experiment [1] (Table D1), over 400 nM; in experiment [2] (Table D1), 190 nM; in experiment [3] (Table D1) it was over 400 nM.
As for `CCCC(=O)N1Cc2cccc(c2)Nc2ncc(Cl)c(n2)Nc2cccc1c2` [Example C26, 14-Butyryl-6-chloro-2,4,8,14,22-pentaazatetracyclo[14.3.1.1(3,7).1(9,13)]docosa-1(20),3(22),4,6,9(21),10,12,16,18-nonaene], the IC50 against TYK2 is 1420 nM; in experiment [1], over 10000 nM; in experiment [2], 228 nM; in experiment [3], 357 nM.
As for `O=C(Nc1ccccc1)N1CCC(COc2ccc3cc2CCc2cncc(c2)Nc2ncc(Cl)c(n2)N3)CC1` [Example D228, 4-({[6-Chloro-2,4,8,18,22-pentaazatetracyclo[14.3.1.1(3,7).1(9,13)]docosa-1(20),3(22),4,6,9(21),10,12,16,18-nonaen-12-yl]oxy}methyl)-N-phenylpiperidine-1-carboxamide bis(trifluoroacetate)], the half-maximal inhibitory concentration (IC50) is over 400 nM against TYK2 (Table D1), over 400 nM in experiment [1] (Table D1), over 400 nM in experiment [2] (Table D1) and 371 nM in experiment [3] (Table D1).
For `O=C(Cn1c(=O)oc2c3cc(cc21)Nc1nc(ncc1Cl)Nc1cccc(c1)CC3)Nc1ccccc1` [Example D185, 2-[4-Chloro-19-oxo-18-oxa-2,6,8,20,25-pentaazapentacyclo[14.6.1.1(3,7).1(9,13).0(17,21)]pentacosa-1(23),3(25),4,6,9(24),10,12,16,21-nonaen-20-yl]-N-phenylacetamide trifluoroacetate], the IC50 against TYK2 (Table D1) stood at 742 nM; in experiment [1] (Table D1), 196 nM; in experiment [2] (Table D1), 108 nM; in experiment [3] (Table D1), 49 nM.
In the case of `Cc1oncc1C(=O)N1CCC(CCOc2ccc3cc2CCc2cncc(c2)Nc2ncc(Cl)c(n2)N3)CC1` [Example D178, 6-Chloro-12-(2-{1-[(5-methylisoxazol-4-yl)carbonyl]piperidin-4-yl}ethoxy)-2,4,8,18,22-pentaazatetracyclo[14.3.1.1(3,7).1(9,13)]docosa-1(20),3(22),4,6,9(21),10,12,16,18-nonaene bis(trifluoroacetate)], the concentration for half-maximal inhibition (IC50) against TYK2 (Table D1) is over 400 nM; in experiment [1] (Table D1), over 400 nM; in experiment [2] (Table D1), 265 nM; in experiment [3] (Table D1), over 400 nM.
For the compound `Cc1cnc2nc1Nc1ccc(NC(=O)CC3CCN(c4nncs4)CC3)c(c1)CCc1cccc(c1)N2` [Example C53, N-[6-Methyl-2,4,8,22-tetraazatetracyclo[14.3.1.1(3,7).1(9,13)]docosa-1(20),3(22),4,6,9(21),10,12,16,18-nonaen-12-yl]-2-[1-(1,3,4-thiadiazol-2-yl)piperidin-4-yl]acetamide trifluoroacetate], the IC50 on TYK2 was 199 nM; in experiment [1], over 200 nM; in experiment [2] it was 39 nM; in experiment [3] it was over 200 nM.
For the compound `O=C(c1ccccn1)N1Cc2cccc(c2)Nc2ncc(Cl)c(n2)Nc2cccc1c2` [Example C23, 6-Chloro-14-(pyridin-2-ylcarbonyl)-2,4,8,14,22-pentaazatetracyclo[14.3.1.1(3,7).1(9,13)]docosa-1(20),3(22),4,6,9(21),10,12,16,18-nonaene], the half-inhibitory concentration (IC50) against TYK2 is 1140 nM; in experiment [1] it was over 10000 nM; in experiment [2], 162 nM; in experiment [3], 281 nM.
For `O=C(C[C@H]1CCCN(C(=O)c2ccccc2)C1)Nc1ccc2cc1CCc1cccc(c1)Nc1ncc(Cl)c(n1)N2` [Example D203, 2-[(3R)-1-Benzoylpiperidin-3-yl]-N-[6-chloro-2,4,8,22-tetraazatetracyclo[14.3.1.1(3,7).1(9,13)]docosa-1(20),3(22),4,6,9(21),10,12,16,18-nonaen-12-yl]acetamide trifluoroacetate], the 50% inhibitory concentration (IC50) on TYK2 (Table D1) came out at 70 nM; in experiment [1] (Table D1), 85 nM; in experiment [2] (Table D1), 32 nM; in experiment [3] (Table D1), 13 nM.
Regarding `O=C(NCc1ccco1)Nc1ccc2cc1CCc1cncc(c1)Nc1ncc(Cl)c(n1)N2` [Example B134, N-[6-Chloro-2,4,8,18,22-pentaazatetracyclo[14.3.1.1(3,7).1(9,13)]docosa-1(20),3(22),4,6,9(21),10,12,16,18-nonaen-12-yl]-N′-(2-furylmethyl)urea bis(trifluoroacetate)], the IC50 at TYK2 (Table B1) is 2.8 nM; in experiment [1] (Table B1), 23 nM; in experiment [2] (Table B1), 0.75 nM; in experiment [3] (Table B1), 1.7 nM.
As for `CNC(=O)N1CCN(C(=O)COc2ccc3cc2CCc2cncc(c2)Nc2ncc(Cl)c(n2)N3)CC1` [Example D265, 4-({[6-Chloro-2,4,8,18,22-pentaazatetracyclo[14.3.1.1(3,7).1(9,13)]docosa-1(20),3(22),4,6,9(21),10,12,16,18-nonaen-12-yl]oxy}acetyl)-N-methylpiperazine-1-carboxamide bis(trifluoroacetate)], the 50% inhibitory concentration (IC50) against TYK2 (Table D1) is over 400 nM; in experiment [1] (Table D1), over 400 nM; in experiment [2] (Table D1), 34 nM; in experiment [3] (Table D1) it was 235 nM.
For `Cc1occc1NC(=O)N1CCC(CCOc2ccc3cc2CCc2cncc(c2)Nc2ncc(Cl)c(n2)N3)CC1` [Example D164, 4-(2-{[6-Chloro-2,4,8,18,22-pentaazatetracyclo[14.3.1.1(3,7).1(9,13)]docosa-1(20),3(22),4,6,9(21),10,12,16,18-nonaen-12-yl]oxy}ethyl)-N-(2-methyl-3-furyl)piperidine-1-carboxamide bis(trifluoroacetate)], the IC50 is over 400 nM against TYK2 (Table D1), over 400 nM in experiment [1] (Table D1), 39 nM in experiment [2] (Table D1) and 75 nM in experiment [3] (Table D1).
With `O=C(C[C@H]1CCN(c2nc3ccccc3s2)C1)Nc1ccc2cc1CCc1cncc(c1)Nc1ncc(Cl)c(n1)N2` [Example D136, 2-[(3R)-1-(1,3-Benzothiazol-2-yl)pyrrolidin-3-yl]-N-[6-chloro-2,4,8,18,22-pentaazatetracyclo[14.3.1.1(3,7).1(9,13)]docosa-1(20),3(22),4,6,9(21),10,12,16,18-nonaen-12-yl]acetamide tris(trifluoroacetate)], the half-inhibitory concentration (IC50) on TYK2 (Table D1) is 106 nM; in experiment [1] (Table D1) it was over 1000 nM; in experiment [2] (Table D1), 6.6 nM; in experiment [3] (Table D1), 53 nM.
In the same order, the values of `Cc1cc(C(=O)N2CCC(Nc3ccc4cc3CCc3cncc(c3)Nc3ncc(Cl)c(n3)N4)CC2)no1` [Example D160, 6-Chloro-N-{1-[(5-methylisoxazol-3-yl)carbonyl]piperidin-4-yl}-2,4,8,18,22-pentaazatetracyclo[14.3.1.1(3,7).1(9,13)]docosa-1(20),3(22),4,6,9(21),10,12,16,18-nonaen-12-amine tris(trifluoroacetate)] are over 400 nM, over 400 nM, 244 nM and 341 nM.
Turning to `O=C(Cc1noc2ccccc12)Nc1ccc2cc1CCc1cccc(c1)Nc1ncc(Cl)c(n1)N2` [Example C45, 2-(1,2-Benzisoxazol-3-yl)-N-[6-chloro-2,4,8,22-tetraazatetracyclo[14.3.1.1(3,7).1(9,13)]docosa-1(20),3(22),4,6,9(21),10,12,16,18-nonaen-12-yl]acetamide trifluoroacetate], the half-maximal inhibitory concentration (IC50) against TYK2 was 544 nM; in experiment [1] it was over 10000 nM; in experiment [2] it was 165 nM; in experiment [3] it was 321 nM.
In the case of `N#Cc1ccccc1NC(=O)N1CCC(CCOc2ccc3cc2CCc2cncc(c2)Nc2ncc(Cl)c(n2)N3)CC1` [Example D173, 4-(2-{[6-Chloro-2,4,8,18,22-pentaazatetracyclo[14.3.1.1(3,7).1(9,13)]docosa-1(20),3(22),4,6,9(21),10,12,16,18-nonaen-12-yl]oxy}ethyl)-N-(2-cyanophenyl)piperidine-1-carboxamide bis(trifluoroacetate)], the IC50 on TYK2 (Table D1) was over 400 nM; in experiment [1] (Table D1), over 400 nM; in experiment [2] (Table D1), 100 nM; in experiment [3] (Table D1) it was over 400 nM.
For `COC(=O)c1ccc2cc1CCc1cncc(c1)Nc1ncc(Cl)c(n1)N2` [Example C28, Methyl 6-chloro-2,4,8,18,22-pentaazatetracyclo[14.3.1.1(3,7).1(9,13)]docosa-1(20),3(22),4,6,9(21),10,12,16,18-nonaene-12-carboxylate], the IC50 was over 200 nM at TYK2, over 200 nM in experiment [1], 120 nM in experiment [2] and 100 nM in experiment [3].
